We go through 90 molecules from a melting point compilation (Tetko et al.; mined from patent text by program, amines drawn as free bases though some values may be those of a salt).

Where only a bound is given, the exact number is not on record here.

A word on the melting point: it is the temperature of the solid-liquid transition. The molecule `NC(=O)c1c(N)oc2c(-c3ccccc3)cccc2c1=O` displayed a melting point of 233 to 235 °C.

In the case of `CCCCSc1nnc(-c2ccc(N)cc2)s1`, the melting point is 91 °C. Regarding `CC1(C)CC2(CC(C)(C)N1)NC(=O)N(CC(O)COC(=O)CCCCC(=O)OCC(O)CN1C(=O)NC3(CC(C)(C)NC(C)(C)C3)C1=O)C2=O` (stereo not given), the melting point is 132 to 134 °C. Molecule `COC(=O)Nc1coc2cc(NS(C)(=O)=O)c(Oc3ccccc3)cc2c1=O` showed a melting point of 233 to 235 °C. For the molecule `Cn1c(=O)c2c(nc(N3CCC(N)C3)n2Cc2ccccc2C#N)n(C)c1=O` (stereo not given), the melting point is 186 to 189 °C.

`Cc1sc(-c2ccccc2)nc1COc1cc(COc2ccccc2CC(=O)O)on1` had a melting point of 147 to 148 °C. `CNC(=NS(C)(=O)=O)NCc1cccc(-c2csc(N=C(N)N)n2)n1` showed a melting point of 254 to 255 °C. Molecule `CCCCCCc1nc2c(N)nc3ccccc3c2n1CCCCNS(=O)(=O)c1ccccc1` had a melting point of 84.8 to 85.4 °C. In the case of `COC(=O)NS(=O)(=O)c1cccc([N+](=O)[O-])c1`, the melting point is 121 to 123 °C. For `CN(C)C(=O)c1cnn2ccccc12`, the melting point fell in the range of 86 to 87 °C. `CCC1c2cccn2-c2ccc(Br)cc2N1S(=O)(=O)c1ccc(O)c(C)c1` (stereo not given) came in with a melting point of 191 to 193 °C. Molecule `CN(C)C1CCc2[nH]c3cc(F)ccc3c2C1` (stereo not given) came in with a melting point of 174 to 176 °C. `O=S1(=O)CCCN1Cc1ccncc1` displayed a melting point of 82 °C.

With `CC(C)(C)NSc1cnccn1`, the melting point lay in the range of 44 to 52 °C. For `N#Cc1cnc2cc(C#CCO)ccc2c1Nc1ccc(Cl)cc1Cl`, the melting point lay within 251 to 253 °C. In turn, `COCc1c(OC)cc(Cc2cnc(N)nc2N)cc1OC` gave a melting point of 221 to 223 °C. Next, `CCN1C=C2C=C(S)N=CN2N1`: 251 to 254 °C; `COCc1cccc2oc(C(=O)Nc3ccc(-c4ccc(S(=O)(=O)NC(C(=O)O)C(C)C)cc4)cc3)c(C)c12` (stereo not given): 227 to 230 °C. `O=C(O)Cn1c(=O)c(=O)[nH]c2cc([N+](=O)[O-])c(Cl)cc21`: the melting point was more than 280 °C. The same measure for `CC#CCOc1cc(OCC#CC)ncn1`: 82.9 °C.

Regarding `CCCCCNC(=O)N(CCCc1ccncc1)CCC12CC3CC(CC(C3)C1)C2`, the melting point was in the range of 47 to 50 °C. Take `O=C(NCCO)c1ccc(-c2nn(Cc3ccccc3)c3ccccc23)o1`: the melting point lay within 119 to 127 °C. For the molecule `CC(C)(C)C1=C(c2cc3cc(O[Si](C)(C)C(C)(C)C)ccc3s2)OCC1(C)C`, the melting point lay in the range of 88 to 89 °C. Molecule `Clc1ccc2c(c1)C(c1ccccc1)NC1=NCCN12` (stereo not given) returned a melting point of 210 to 213 °C. As to `CSC(=N[N+](=O)[O-])NCc1cnc(Cl)s1`, the melting point was 162 to 165 °C. `O=C(Oc1ccccc1)c1ccc(C(=O)Oc2ccccc2)c(C(=O)Oc2ccccc2)c1` showed a melting point of 156 to 158 °C. Molecule `COc1ccc(CC(C)=NO)cc1S(N)(=O)=O` showed a melting point of 193 to 194 °C.

In turn, `Cc1cc(C)c(-c2cc(O)c(SCc3ccccc3)c(=O)o2)c(C)c1` yielded a melting point of 134 to 136 °C. In turn, `Cc1cc2[nH]cc(CSCC(=O)N3CC=C(c4ccccc4)CC3)c2cc1C` gave a melting point of 167 to 169 °C. Regarding `CC(C)N(c1nc(Cl)nc(N2C(C)(C)CC3(CC2(C)C)OCCO3)n1)C(C)C`, the melting point lay within 179 to 184 °C. Turning to `Nc1cccc(-c2ccc(CCN3CCN(C(=O)Cc4ccc(Cl)cc4)CC3)cc2)n1`, the melting point came to 205 °C.

`CSc1cc(-c2ccccc2)ccc1C1=NC(C)(C)CO1`: the melting point was in the range of 93 to 95 °C. The molecule `O=C(NCCC12CC3CC(CC(C3)C1)C2)c1cccc(Cl)c1Cl` showed a melting point of 158 to 159 °C. Take `CC(C)(C)NS(=O)(=O)c1ccccc1-c1ccc(NC(=O)N(Cc2cccc(C(=N)N)c2)c2ccccc2)cc1`: the melting point lay within 140 to 141 °C.

In turn, `N#Cc1ccc(C(F)(F)F)cn1` gave a melting point of 36 to 38 °C. On to `CCOC(=O)N(CCOc1ccc(Oc2ccc(F)cc2)cc1)C(=O)OCC`, for which the melting point fell in the range of 52 to 53 °C. Molecule `CC(C)(C)c1cccc(S(=O)(=O)n2ccc3cc(C(F)(F)F)ccc32)c1` gave a melting point of 84 to 86 °C. The same measure for `COc1ccc(-c2cc(=O)c3c(OC)cc(OC)c(C4=CCN(C)CC4)c3o2)cc1`: 179 to 181 °C; for `O=S(=O)(Cl)c1cccc2c(I)cccc12`: 113 to 114 °C. In the case of `CNc1nc(-c2cccc(C(=O)Nc3cccnc3)c2)c2cc(OC)c(OC)cc2n1`, the melting point lay in the range of 238 to 240 °C. Take `N#CCN1CCc2ccccc2C(Oc2ccc(C(F)(F)F)cc2)C1` (stereo not given): the melting point was 125 to 129 °C. `CC(C)N(CCOc1ccc2oc3ccc(OCCN(C(C)C)C(C)C)cc3c2c1)C(C)C` displayed a melting point of 47 to 49 °C. The molecule `C#CCOC(C(=O)O)c1ccc(Cl)cc1` (stereo not given) showed a melting point of 69 to 70 °C. As for `O=c1c(Cl)c(Cl)cnn1-c1cc(-c2ccnc(Nc3cccc(Cl)c3)n2)ccn1`, the melting point was 238 to 240 °C. `CCCCCCCCCCCC1N(C(C)=O)c2ccccc2-c2c([N+](=O)[O-])cnn21` (stereo not given) yielded a melting point of 83 to 85 °C.

For the molecule `COc1cc(CO)ccc1OCc1coc(-c2ccco2)n1`, the melting point was 117 to 118 °C. Molecule `Nc1nc2c(=O)c3cc(Cl)ccc3oc2cc1-c1nnn[nH]1` returned a melting point of more than 300 °C. As to `CCC(C(=O)OC)c1cccc(C(=O)c2cc3cc(C(=O)OC)sc3s2)c1` (stereo not given), the melting point came to 143 °C. On to `O=C1c2cc(F)ccc2C(=O)c2c1nc1ccccn21`, for which the melting point was more than 260 °C.

In turn, `Cc1ccc(-c2ncccc2OC2SCC(O)C(O)C2O)o1` (stereo not given) had a melting point of 191 °C. In turn, `COC(=O)c1ccc(-c2cc(-c3ccc(C(F)(F)F)cc3)on2)cc1` returned a melting point of 183 to 184 °C. `COC(=O)C1Cc2c([nH]c3ccccc23)C(c2ccccc2Cl)N1` (stereo not given) had a melting point of 154 °C. `COC(=O)C1=C(CC(=O)N2CCN(C)CC2)NC(CS(=O)c2ccccc2C)=C(C(=O)OC)C1c1c(Cl)cccc1Cl` (stereo not given) showed a melting point of 183 °C. Molecule `COc1cc(OC)c(-c2nc3cccnc3[nH]2)cc1C=CC(=O)c1ccc(S(N)(=O)=O)cc1` displayed a melting point of more than 260 °C. `CN1CCc2c(-c3ccc(Cl)cc3)ccc([N+](=O)[O-])c2C1`: the melting point is 162 to 163 °C. In turn, `COc1ccc(C(=O)O)c(C(=O)O)c1` returned a melting point of 168 to 174 °C. As to `CCCC(CCNC(=O)C(C#N)=Cc1cc(O)c(O)c(O)c1)NC(=O)C(C#N)=Cc1cc(O)c(O)c(O)c1` (stereo not given), the melting point was more than 300 °C.

As to `O=c1c2cc(O)c(O)cc2c2cc(O)c(O)cc2n1CCCc1ccccc1`, the melting point lay in the range of 155 to 158 °C. The same measure for `Cn1cnc2ccnc(Cl)c21`: 62 to 65 °C; for `COc1ccc2nc(Cl)c(OC)nc2c1`: 79 to 81 °C; for `CCC1CCc2cc3c(cc2C1)C(=O)c1cccc(OC)c1C3=O` (stereo not given): 206 to 208 °C.

As for `COc1ccc2c(c1)C=C(c1ccc3c(c1)NC(=O)CO3)C(c1ccccc1)O2` (stereo not given), the melting point was 200 °C.

Regarding `C[C@H]1C(=O)NC2CCC(=O)N21` (stereo not given in full), the melting point lay in the range of 84 to 86 °C. In turn, `CCOC(=O)Nc1csc2cc(O)ccc12` gave a melting point of 159 to 160 °C. The same measure for `CCC(=O)Nc1cccc(NC(=O)C=C(C)OC)c1`: 155 °C; for `CCN(CC)CCCCC1CCN(CC(=O)N2c3ccccc3NC(=O)c3c2ccn3C)CC1`: 198 °C; for `O=C(O)[C@H](Cc1ccsc1)NN1C(=O)c2ccccc2C1=O`: 166 to 168 °C. In turn, `CCOC(=O)c1cc2ccc(C)c(Cl)c2[nH]1` gave a melting point of 73 to 75 °C. The molecule `CC(=O)Oc1ccc(N=c2scc(-c3ccc(Cl)c(S(=O)(=O)N(C)C)c3)n2C)cc1` came in with a melting point of 173 to 174 °C. Next, `Nc1ncccc1-c1nc2cc(-c3cccnc3)cnc2n1-c1ccc(CNS(=O)(=O)c2ccccc2)cc1`: 217 to 219 °C. Take `O=C(O)c1cc(-n2c(-c3ccccc3)cc3c2CCCC3)cc(Br)c1O`: the melting point lay in the range of 209 to 210 °C. The same measure for `O=C(NCCCCCCNC(=O)N(O)Cc1ccccc1)N(O)Cc1ccccc1`: 181 to 182 °C. On to `Cc1ccc(C(N)=O)cc1Br`, for which the melting point fell in the range of 178 to 179 °C. Molecule `O=C(NCCC(F)=C(F)F)N(c1ccccc1)c1ccccc1` showed a melting point of 116 to 117 °C. The molecule `COC(=O)CCC(=O)c1ccc(S)cc1` gave a melting point of 83 to 84 °C. The molecule `CCOC(=O)c1c(-c2cccs2)nn(CC)c(=O)c1Nc1cccnc1` registered a melting point of 124 to 125 °C. With `c1ccc(C(OC(c2ccccc2)(c2ccccc2)c2ccccc2)(c2ccccc2)c2ccccc2)cc1`, the melting point is 89 to 91 °C. Regarding `CON=C1[C@@H](c2cc(OC)c(OC)c(OC)c2)CC[C@@H]1c1cc(OC)c(OC)c(OC)c1` (relative stereo), the melting point lay within 61 to 63 °C. In turn, `Cc1ncn(-c2cc(F)ccc2C#N)n1` yielded a melting point of 117 to 118 °C. The molecule `CC(=O)NN=C(C)c1ccc(C)nc1` returned a melting point of 178 °C. In the case of `O=C(NC[C@@H](C(=O)NO)N1CCCCC1)c1ccc(OCc2ccnc(Br)c2)cc1`, the melting point turned out to be 150 °C. `CCC(CC(Cc1cccc2ccccc12)C(=O)N[C@@H](Cc1c[nH]cn1)C(=O)N[C@H](C=NNC(N)=O)CC(C)C)c1ccccc1` (stereo not given in full) returned a melting point of 105 to 109 °C. The molecule `CN(C)C(=O)c1nc(-c2ccccc2)nc2c1c1ccc(F)cc1n2C` displayed a melting point of 229 to 231 °C. The same measure for `Cc1ccc(C(=O)O)c(NC(=O)C(F)(F)F)c1`: 178 to 180 °C. Molecule `CC1(C)CCC[C@]2(C)OC(=O)C[C@H]12` registered a melting point of 74 to 75 °C. Next, `NC(=O)CCCCCN1CCN(c2csc3cc(F)ccc23)CC1`: 141 to 142 °C. In the case of `Cc1nc2cccc3n(CCCNS(C)(=O)=O)c(=O)c1n23`, the melting point was 184 to 185 °C. Next, `CCNc1nc2ccc(COc3cccc(CN4CCCCC4)c3)cc2o1`: 105 to 106 °C. In turn, `Cc1cc(C)cc(S(=O)c2c(C(C)C)nc(C)n2C)c1` (stereo not given) registered a melting point of 100 to 101 °C.

Consider `COc1ccc(-n2nnc(-c3ccc(F)cc3Cl)c2N)cc1`, for which the melting point lay in the range of 175 to 177 °C.
